# Test results published in patent US9580390B2, “Indazole compounds as kinase inhibitors and method of treating cancer with same” (University Health Network, priority 2011, dated 2017).
# Where two headings read alike, the source gives them in different places.
# How the values were obtained:
# human TTK = target: T1, human TTK (Homo sapiens, UniProt P33981); test: TTK inhibition assay (indirect ELISA); format: biochemical; conditions: read-out: TTK IC50 Range
# T1 construct: amino terminal GST fusion of full length human TTK; purchased Invitrogen
# T1 sequence (P33981 1-857): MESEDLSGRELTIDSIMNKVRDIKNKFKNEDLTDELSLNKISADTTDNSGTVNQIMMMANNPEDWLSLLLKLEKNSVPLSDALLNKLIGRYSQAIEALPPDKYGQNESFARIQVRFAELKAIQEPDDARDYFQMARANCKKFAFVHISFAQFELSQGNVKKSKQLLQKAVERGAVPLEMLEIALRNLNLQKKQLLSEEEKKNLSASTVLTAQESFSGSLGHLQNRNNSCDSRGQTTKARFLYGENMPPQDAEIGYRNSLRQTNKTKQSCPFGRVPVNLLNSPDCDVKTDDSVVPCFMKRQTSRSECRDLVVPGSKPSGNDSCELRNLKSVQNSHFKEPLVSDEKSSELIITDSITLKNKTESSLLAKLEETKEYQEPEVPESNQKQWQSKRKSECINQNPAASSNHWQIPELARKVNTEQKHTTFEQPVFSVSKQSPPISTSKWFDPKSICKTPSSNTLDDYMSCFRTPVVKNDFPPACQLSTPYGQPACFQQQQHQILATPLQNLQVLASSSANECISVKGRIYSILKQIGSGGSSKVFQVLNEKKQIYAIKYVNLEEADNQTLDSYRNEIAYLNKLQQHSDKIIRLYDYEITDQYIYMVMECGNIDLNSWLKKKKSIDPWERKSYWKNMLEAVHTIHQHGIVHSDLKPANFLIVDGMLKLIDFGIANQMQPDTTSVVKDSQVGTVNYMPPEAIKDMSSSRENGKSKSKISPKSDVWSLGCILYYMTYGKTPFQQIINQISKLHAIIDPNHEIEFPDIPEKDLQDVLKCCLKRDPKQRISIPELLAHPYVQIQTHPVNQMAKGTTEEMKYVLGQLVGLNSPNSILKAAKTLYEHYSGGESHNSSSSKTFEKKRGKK
# [1] = test system: colon cancer cells (HCT116); test: Cancer cell line growth inhibition (SRB assay); format: cell-based; conditions: Homo sapiens, HCT-116, read-out: Cancer Cell Line GI50 Range HCT116
# [2] = test system: ovarian cancer cells (PA-1); test: Cancer cell line growth inhibition (SRB assay); format: cell-based; conditions: read-out: Cancer Cell Line GI50 Range PA-1
# [3] = HCT116 colon cancer cells, SRB assay
# [4] = PA-1 ovarian cancer cells, SRB assay
IC50 (human TTK) [µM],GI50 [1] [µM],"GI50 ([2]; Homo sapiens, PA-1) [µM]","GI50 [1, 3] [µM]","GI50 [2, 4] [µM]",SMILES
0.1 to 0.5,> 0.5,> 0.5,–,–,"O=C(CC1(c2ccccc2)COC1)Nc1ccc2[nH]nc(-c3ccc(OC4CCN(C5COC5)CC4)cc3)c2c1 [Example A462, N-(3-(4-((1-(oxetan-3-yl)piperidin-4-yl)oxy)phenyl)-1H-indazol-5-yl)-2-(3-phenyloxetan-3-yl)acetamide]"
< 0.1,0.1 to 0.5,< 0.1,–,–,"CCC(CC)(CNC(=O)c1ccc2[nH]nc(-c3ccc(OC4CCN(C5COC5)CC4)cc3)c2c1)N1CCOCC1 [Example A466, N-(2-ethyl-2-morpholinobutyl)-3-(4-((1-(oxetan-3-yl)piperidin-4-yl)oxy)phenyl)-1H-indazole-5-carboxamide]"
< 0.1,–,–,0.1 to 0.5,0.1 to 0.5,"O=C(NCC1(c2ccccc2)CCCCC1)c1ccc2[nH]nc(-c3ccc(N4CCOCC4)cc3)c2c1 [Example A469, 3-(4-morpholinophenyl)-N-((1-phenylcyclohexyl)methyl)-1H-indazole-5-carboxamide]"
< 0.1,–,–,0.1 to 0.5,0.1 to 0.5,"CN1CCC(Oc2ccc(-c3n[nH]c4ccc(C(=O)NCC5(c6ccccc6)CCCCC5)cc34)cc2)CC1 [Example A470, 3-(4-((1-methylpiperidin-4-yl)oxy)phenyl)-N-((1-phenylcyclohexyl)methyl)-1H-indazole-5-carboxamide]"
< 0.1,–,–,0.1 to 0.5,0.1 to 0.5,"CN1CCC(Oc2ccc(-c3n[nH]c4ccc(C(=O)NCC5(c6ccccc6)CC5)cc34)cc2)CC1 [Example A471, 3-(4-((1-methylpiperidin-4-yl)oxy)phenyl)-N-((1-phenylcyclopropyl)methyl)-1H-indazole-5-carboxamide]"
< 0.1,–,–,0.1 to 0.5,0.1 to 0.5,"CN1CCC(Oc2ccc(-c3n[nH]c4ccc(C(=O)NCC5(c6ccsc6)CCCCC5)cc34)cc2)CC1 [Example A472, 3-(4-((1-methylpiperidin-4-yl)oxy)phenyl)-N-((1-(thiophen-3-yl)cyclohexyl)methyl)-1H-indazole-5-carboxamide]"
< 0.1,–,–,0.1 to 0.5,0.1 to 0.5,"CN1CCC(Oc2ccc(-c3n[nH]c4ccc(C(=O)NCC5(c6ccccc6)CCOCC5)cc34)cc2)CC1 [Example A473, 3-(4-((1-methylpiperidin-4-yl)oxy)phenyl)-N-((4-phenyltetrahydro-2H-pyran-4-yl)methyl)-1H-indazole-5-carboxamide]"
< 0.1,–,–,0.1 to 0.5,0.1 to 0.5,"CN1CCC(Oc2ccc(-c3n[nH]c4ccc(C(=O)NCC5(c6ccccn6)CCCCC5)cc34)cc2)CC1 [Example A474, 3-(4-((1-methylpiperidin-4-yl)oxy)phenyl)-N-((1-(pyridin-2-yl)cyclohexyl)methyl)-1H-indazole-5-carboxamide]"
< 0.1,–,–,0.1 to 0.5,0.1 to 0.5,"CN1CCC(Oc2ccc(-c3n[nH]c4ccc(C(=O)NCC5(c6ccccc6F)CCOCC5)cc34)cc2)CC1 [Example A476, N-((4-(2-fluorophenyl)tetrahydro-2H-pyran-4-yl)methyl)-3-(4-((1-methylpiperidin-4-yl)oxy)phenyl)-1H-indazole-5-carboxamide]"
< 0.1,–,–,> 0.5,> 0.5,"CN1CCC(Oc2ccc(-c3n[nH]c4ccc(C(=O)NCC5(c6ccncc6)CCOCC5)cc34)cc2)CC1 [Example A478, 3-(4-((1-methylpiperidin-4-yl)oxy)phenyl)-N-((4-(pyridin-4-yl)tetrahydro-2H-pyran-4-yl)methyl)-1H-indazole-5-carboxamide]"
< 0.1,–,–,0.1 to 0.5,0.1 to 0.5,"CN1CCC(Oc2ccc(-c3n[nH]c4ccc(C(=O)NCC5(c6ccncc6)CCCCC5)cc34)cc2)CC1 [Example A480, 3-(4-((1-methylpiperidin-4-yl)oxy)phenyl)-N-((1-(pyridin-4-yl)cyclohexyl)methyl)-1H-indazole-5-carboxamide]"
